Experimental data reported in PubChem BioAssay (NCI).
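Values below derive from 48-hour exposures of cells grown in 96-well plates, with endpoints linearly interpolated between the two concentrations bracketing the appropriate inhibition level. Here, GI50 denotes the concentration required for 50% inhibition of growth. TGI: concentration producing complete growth inhibition.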

How the values were obtained:
Test in all cases: NCI-60 cell line screen, 48 h
[1] = tested on: EKVX NSCLC
[2] = tested on: OVCAR-3 ovarian
[3] = tested on: A498 renal
[4] = tested on: HS 578T breast
[5] = tested on: SK-MEL-2 melanoma
[6] = tested on: SR leukemia
[7] = tested on: IGROV1 ovarian
[8] = tested on: SNB-75 CNS
[9] = tested on: KM12 colon
[10] = tested on: MDA-MB-435
[11] = tested on: NCI-H226 lung
[12] = tested on: NCI/ADR-RES ovarian
[13] = tested on: SF-295 CNS
[14] = tested on: SF-268 CNS
[15] = tested on: PC-3 prostate
[16] = tested on: T-47D breast
[17] = tested on: 786-0 renal
[18] = tested on: CCRF-CEM leukemia
[19] = tested on: RXF 393 renal
[20] = tested on: SW-620 colon
[21] = tested on: HOP-92 NSCLC
[22] = tested on: COLO 205 colon
[23] = tested on: MALME-3M melanoma
[24] = tested on: NCI-H522 lung
[25] = tested on: HCT-116 colon
[26] = tested on: NCI-H23 lung
[27] = tested on: RPMI-8226 leukemia
[28] = tested on: DU-145 prostate
[29] = tested on: SF-539 CNS
[30] = tested on: MOLT-4 leukemia
[31] = tested on: UO-31 renal
[32] = tested on: NCI-H460 lung
[33] = tested on: OVCAR-4 ovarian
[34] = tested on: OVCAR-5 ovarian
[35] = tested on: SK-MEL-28 melanoma
[36] = tested on: HOP-62 NSCLC
[37] = tested on: SN12C renal
[38] = tested on: HT29 colon
[39] = tested on: MCF7 breast
[40] = tested on: MDA-MB-231 breast
[41] = tested on: BT-549 breast
[42] = tested on: OVCAR-8 ovarian
[43] = tested on: SK-OV-3 ovarian
[44] = tested on: M14 melanoma
[45] = tested on: SK-MEL-5 melanoma
[46] = tested on: A549 NSCLC
[47] = tested on: HCT-15 colon
[48] = tested on: K-562 leukemia
[49] = tested on: U251 CNS
[50] = tested on: TK-10 renal
[51] = tested on: LOX IMVI melanoma
[52] = tested on: UACC-257 melanoma
[53] = tested on: HL-60(TB) leukemia
[54] = tested on: ACHN renal
[55] = tested on: SNB-19 CNS
[56] = tested on: HCC-2998 colon
[57] = tested on: UACC-62 melanoma
[58] = tested on: CAKI-1 renal

Structure (SMILES): CCCc1n(Cc2ccc3ccccc3n2)cc[n+]1Cc1ccc2ccccc2n1
- GI50 [1]: 5.67 µM
- TGI [1]: > 79.6 µM
- GI50 [2]: 0.705 µM
- TGI [2]: 10.6 µM
- GI50 [3]: 7.21 µM
- TGI [3]: 35 µM
- GI50 [4]: 3.54 µM
- TGI [4]: 23 µM
- GI50 [5]: 1.52 µM
- TGI [5]: 5.68 µM
- GI50 [6]: 0.635 µM
- TGI [6]: 12.7 µM
- GI50 [7]: 1.48 µM
- TGI [7]: 15.1 µM
- GI50 [8]: 1.46 µM
- TGI [8]: 8.7 µM
- GI50 [9]: 0.991 µM
- TGI [9]: 11.9 µM
- GI50 [10]: 1.13 µM
- TGI [10]: 11.9 µM
- GI50 [11]: 3.26 µM
- TGI [11]: 26.2 µM
- GI50 [12]: > 100 µM
- TGI [12]: > 100 µM
- GI50 [13]: 3.57 µM
- TGI [13]: 15.7 µM
- GI50 [14]: 2.3 µM
- TGI [14]: 14.2 µM
- GI50 [15]: 1.85 µM
- TGI [15]: 14.7 µM
- GI50 [16]: 0.416 µM
- TGI [16]: 5.03 µM
- GI50 [17]: 11.2 µM
- TGI [17]: 24.2 µM
- GI50 [18]: 2.72 µM
- TGI [18]: 28.3 µM
- GI50 [19]: 9.08 µM
- TGI [19]: 35.4 µM
- GI50 [20]: 3.63 µM
- TGI [20]: 25 µM
- GI50 [21]: 0.56 µM
- TGI [21]: 4.18 µM
- GI50 [22]: 0.633 µM
- TGI [22]: 2.21 µM
- GI50 [23]: 1.17 µM
- TGI [23]: 7.51 µM
- GI50 [24]: 0.438 µM
- TGI [24]: 5.07 µM
- GI50 [25]: 2.81 µM
- TGI [25]: 13.1 µM
- GI50 [26]: 0.819 µM
- TGI [26]: 14.2 µM
- GI50 [27]: 0.362 µM
- TGI [27]: 7.41 µM
- GI50 [28]: 4.22 µM
- TGI [28]: 31.2 µM
- GI50 [29]: 2.14 µM
- TGI [29]: 13.4 µM
- GI50 [30]: 2.89 µM
- TGI [30]: 16.5 µM
- GI50 [31]: 16.5 µM
- TGI [31]: 73.9 µM
- GI50 [32]: 2.44 µM
- TGI [32]: 11.5 µM
- GI50 [33]: 0.445 µM
- TGI [33]: 18.3 µM
- GI50 [34]: 3.72 µM
- TGI [34]: 34.2 µM
- GI50 [35]: 1.52 µM
- TGI [35]: 15.8 µM
- GI50 [36]: 4.17 µM
- TGI [36]: 17.9 µM
- GI50 [37]: 2.23 µM
- TGI [37]: 11.8 µM
- GI50 [38]: 1.61 µM
- TGI [38]: 11.4 µM
- GI50 [39]: 1.25 µM
- TGI [39]: 11.9 µM
- GI50 [40]: 2.11 µM
- TGI [40]: 8.47 µM
- GI50 [41]: 1.3 µM
- TGI [41]: 8 µM
- GI50 [42]: 3.16 µM
- TGI [42]: 12.3 µM
- GI50 [43]: 2.44 µM
- TGI [43]: 9.68 µM
- GI50 [44]: 2.29 µM
- TGI [44]: 13.5 µM
- GI50 [45]: 0.866 µM
- TGI [45]: 2.36 µM
- GI50 [46]: 7.73 µM
- TGI [46]: > 100 µM
- GI50 [47]: 37.9 µM
- TGI [47]: > 100 µM
- GI50 [48]: 0.72 µM
- TGI [48]: 15.9 µM
- GI50 [49]: 1.51 µM
- TGI [49]: 12.3 µM
- GI50 [50]: 2.84 µM
- TGI [50]: 12.7 µM
- GI50 [51]: 2.43 µM
- TGI [51]: 10.9 µM
- GI50 [52]: 0.778 µM
- TGI [52]: 4.84 µM
- GI50 [53]: 0.34 µM
- TGI [53]: 1.69 µM
- GI50 [54]: 33.4 µM
- TGI [54]: > 100 µM
- GI50 [55]: 1.13 µM
- TGI [55]: 13.2 µM
- GI50 [56]: 0.985 µM
- TGI [56]: 14.8 µM
- GI50 [57]: 1.12 µM
- TGI [57]: 6.19 µM

Structure (SMILES): CNCCNc1nc2ccccc2c2c(=O)c3cccc(C)c3sc12
- GI50 [1]: 2.73 µM
- TGI [1]: 9.87 µM
- GI50 [58]: 1.16 µM
- TGI [58]: 6.73 µM
- GI50 [2]: 1.47 µM
- TGI [2]: 5.27 µM
- GI50 [3]: 1.07 µM
- TGI [3]: 3.94 µM
- GI50 [4]: 5.07 µM
- TGI [4]: 14.2 µM
- GI50 [5]: 1.28 µM
- TGI [5]: 3.36 µM
- GI50 [6]: 0.94 µM
- TGI [6]: 2.51 µM
- GI50 [7]: 1.29 µM
- TGI [7]: 8.06 µM
- GI50 [8]: 1.14 µM
- TGI [8]: 8.49 µM
- GI50 [9]: 1.11 µM
- TGI [9]: 2.88 µM
- GI50 [10]: 1.05 µM
- TGI [10]: 2.22 µM
- GI50 [11]: 7.19 µM
- TGI [11]: 16.7 µM
- GI50 [12]: 1.76 µM
- TGI [12]: 7.35 µM
- GI50 [13]: 5.54 µM
- TGI [13]: 12.1 µM
- GI50 [14]: 3.53 µM
- TGI [14]: 11.4 µM
- GI50 [15]: 1.55 µM
- TGI [15]: 8.7 µM
- GI50 [16]: 0.876 µM
- TGI [16]: 2.25 µM
- GI50 [17]: 4.07 µM
- TGI [17]: 11.5 µM
- GI50 [18]: 1.28 µM
- TGI [18]: 3.85 µM
- GI50 [19]: 3.08 µM
- TGI [19]: 9.72 µM
- GI50 [20]: 0.915 µM
- TGI [20]: 1.92 µM
- GI50 [21]: 1.69 µM
- TGI [21]: 10.8 µM
- GI50 [22]: 0.921 µM
- TGI [22]: 1.92 µM
- GI50 [23]: 5.16 µM
- TGI [23]: 11.7 µM
- GI50 [24]: 1.3 µM
- TGI [24]: 4.42 µM
- GI50 [25]: 0.818 µM
- TGI [25]: 1.57 µM
- GI50 [26]: 5.13 µM
- TGI [26]: 11.7 µM
- GI50 [27]: 1.16 µM
- TGI [27]: 2.96 µM
- GI50 [28]: 1.89 µM
- TGI [28]: 6.52 µM
- GI50 [29]: 6.42 µM
- TGI [29]: 12.8 µM
- GI50 [30]: 1.28 µM
- TGI [30]: 3.42 µM
- GI50 [31]: 0.79 µM
- TGI [31]: 7.12 µM
- GI50 [32]: 0.917 µM
- TGI [32]: 2.05 µM
- GI50 [33]: 2.1 µM
- TGI [33]: 8.75 µM
- GI50 [34]: 3.91 µM
- TGI [34]: 10.6 µM
- GI50 [35]: 4.08 µM
- TGI [35]: 10.5 µM
- GI50 [36]: 1.36 µM
- TGI [36]: 8.81 µM
- GI50 [37]: 2.04 µM
- TGI [37]: 8.37 µM
- GI50 [38]: 0.887 µM
- TGI [38]: 1.92 µM
- GI50 [39]: 0.793 µM
- TGI [39]: 1.82 µM
- GI50 [40]: 1.02 µM
- TGI [40]: 3.61 µM
- GI50 [41]: 5.34 µM
- TGI [41]: 12.1 µM
- GI50 [42]: 1.94 µM
- TGI [42]: 7.65 µM
- GI50 [44]: 0.853 µM
- TGI [44]: 1.7 µM
- GI50 [45]: 6.14 µM
- TGI [45]: 12.6 µM
- GI50 [46]: 1.82 µM
- TGI [46]: 7.5 µM
- GI50 [47]: 1.13 µM
- TGI [47]: 2.67 µM
- GI50 [48]: 1.04 µM
- TGI [48]: 2.33 µM
- GI50 [49]: 0.968 µM
- TGI [49]: 2.25 µM
- GI50 [51]: 0.791 µM
- TGI [51]: 1.49 µM
- GI50 [52]: 0.944 µM
- TGI [52]: 1.95 µM
- GI50 [53]: 1.06 µM
- TGI [53]: 2.2 µM
- GI50 [54]: 1.7 µM
- TGI [54]: 7.11 µM
- GI50 [56]: 0.824 µM
- TGI [56]: 1.65 µM
- GI50 [57]: 1.15 µM
- TGI [57]: 3.39 µM
